According to US5541163A, “Renin inhibiting N-(2-amino-2-oxoethyl)butanediamide derivatives” (Bio-Mega/Boehringer Ingelheim Research Inc., priority 1993, dated 1996):
pIC50: −log10 of the molar value.

Biological target: T1, human renin (Homo sapiens, UniProt P00797)
T1 construct: A human plasma pool is used as the source of both the substrate (angiotensinogen) and the enzyme (renin); from tissue; host or cells: human plasma pool
T1 sequence (P00797 67-406): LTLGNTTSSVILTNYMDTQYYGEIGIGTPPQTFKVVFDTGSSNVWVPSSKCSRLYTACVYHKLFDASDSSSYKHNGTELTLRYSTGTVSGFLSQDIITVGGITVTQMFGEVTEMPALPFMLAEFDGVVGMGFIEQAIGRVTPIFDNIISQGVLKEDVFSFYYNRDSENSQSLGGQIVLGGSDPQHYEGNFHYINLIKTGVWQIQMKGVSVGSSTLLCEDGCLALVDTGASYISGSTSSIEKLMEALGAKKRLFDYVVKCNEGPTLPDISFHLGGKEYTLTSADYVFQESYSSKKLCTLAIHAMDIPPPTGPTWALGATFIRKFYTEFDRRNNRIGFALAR
Assay: Plasma renin assay (inhibition of human renin, angiotensin I by RIA)
Format: biochemical
Settings: human plasma pool, pH 6.0, 2 h incubation at 37°
Procedure, shortened: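 Pooled human plasma supplies both renin and angiotensinogen; inhibitor in MES/1% HSA buffer (1% DMSO final) incubated 2 h at 37° at pH 6.0. Angiotensin I generated quantified by radioimmunoassay, inhibition relative to no-inhibitor control, IC50 by nonlinear regression.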

pIC50	SMILES
8.70	CC(C)C[C@H](O)[C@H](O)[C@H](CC1CCCCC1)NC(=O)[C@@H](CC(=O)N(CC(=O)N(C)CCN1CCOCC1)[C@@H](C)c1ccccc1)Cc1csc(N)n1 [Compound 93, N^4 -{2-[methyl(2-morpholinoethyl)-amino]-2-oxoethyl}-N^4-[1(S)-phenylethyl]-N^1-[1(S)-(cyclohexylmethyl)-2(R),3(S)-dihydroxy-5-methylhexyl]-2(R)-[(2-amino-4-thiazolyl)methyl]-butanediamide]
6.34	CC(C)C[C@H](O)[C@H](O)[C@H](CC1CCCCC1)NC(=O)[C@@H](CC(=O)N(CC(=O)N(C)C)[C@H](C)c1ccccc1)CC1CC1 [Compound 16, N^4-[2-(dimethylamino)-2-oxoethyl]-N^4-[1(R)-phenylethyl]-N^1-[1(S)-(cyclohexylmethyl)-2(R),3(S)-dihydroxy-5-methylhexyl]-2(R)-(cyclopropylmethyl)butanediamide]
8.40	CC(C)C[C@H](O)[C@H](O)[C@H](CC1CCCCC1)NC(=O)[C@@H](CC(=O)N(CC(=O)N(C)C)[C@@H](C)c1ccccc1)Cc1nccs1 [Compound 54, N^4-[2-(dimethylamino)-2-oxoethyl]-N^4-[1(S)-phenylethyl]-N^1-[1(S)-(cyclohexylmethyl)-2(R),3(S)-dihydroxy-5-methylhexyl]-2(S)-(2-thiazolylmethyl)butanediamide]
7.89	CC(C)C[C@H](O)[C@H](O)[C@H](CC1CCCCC1)NC(=O)[C@@H](CC(=O)N(CC(=O)N(C)CCc1ccccn1)Cc1ccccc1)Cc1cccs1 [Compound 34, N^4-benzyl-N^4 -{2-{methyl[2-(2-pyridinyl)ethyl]amino}-2-oxoethyl}-N^1-[1(S)-(cyclohexylmethyl)-2(R),3(S)-dihydroxy-5-methylhexyl]-2(S)-(2-thienylmethyl)butanediamide]
7.25	CC(C)C[C@H](O)[C@H](O)[C@H](CC1CCCCC1)NC(=O)[C@@H](CC(=O)N(CC(=O)N(C)C)Cc1ccccc1)CC1CC1 [Compound 2, N^4-benzyl-N^4-[2-(dimethylamino)-2-oxoethyl]-N^1-[1(S)-(cyclohexylmethyl)-2(R),3(S)-dihydroxy-5-methylhexyl]-2(R)-(cyclopropylmethyl)butanediamide]
6.84	CC(C)C[C@H](O)[C@H](O)[C@H](CC1CCCCC1)NC(=O)[C@@H](CC(=O)N(CCc1ccccn1)CC(=O)N(C)C)CC1CC1 [Compound 51, N^4-[2-(dimethylamino)-2-oxoethyl]-N^4-[2-(2-pyridinyl)ethyl]-N^1-(1(S)-(cyclohexylmethyl)-2(R),3(S)-dihydroxy-5-methylhexyl]-2(R)-(cyclopropylmethyl)butanediamide]
7.89	CC(C)C[C@H](O)[C@H](O)[C@H](CC1CCCCC1)NC(=O)[C@@H](CC(=O)N(CC(=O)N(C)C)CC1CCCCC1)CC1CC1 [Compound 31, N^4-(cyclohexylmethyl)-N^4-(2-(dimethylamino)-2-oxoethyl]-N^1-[1(S)-(cyclohexylmethyl)-2(R),3(S)-dihydroxy-5-methylhexyl]-2(R)-(cyclopropylmethyl)butanediamide]
8.00	CC(C)C[C@H](O)[C@H](O)[C@H](CC1CCCCC1)NC(=O)[C@@H](CC(=O)N(CC(=O)N1CCOCC1)CC1CCCCC1)Cc1cccnc1 [Compound 59, N^4-(cyclohexylmethyl)-N^4-(2-morpholino-2-oxoethyl)-N^1-[1(S)-(cyclohexylmethyl)-2(R),3(S)-dihydroxy-5-methylhexyl]-2(R)-(3-pyridinylmethyl)butanediamide]
8.00	CC(C)C[C@H](O)[C@H](O)[C@H](CC1CCCCC1)NC(=O)[C@@H](CC(=O)N(CC(=O)N(C)CCc1ccccn1)CC1CCCCC1)Cc1cccnc1 [Compound 66, N^4-(cyclohexylmethyl)-N^4 -{2-{methyl-[2-(2-pyridinyl)ethyl]amino}-2-oxoethyl}-N^1-[1(S)-(cyclohexylmethyl)-2(R),3(S)-dihydroxy-5-methylhexyl]-2(R)-(3-pyridinylmethyl)-butanediamide]
6.85	CCN(CC)C(=O)CN(Cc1ccccc1)C(=O)C[C@@H](CC1CC1)C(=O)N[C@@H](CC1CCCCC1)[C@@H](O)[C@@H](O)CC(C)C [Compound 11, N^4-benzyl-N^4-[2-(diethylamino)-2-oxoethyl]-N^1-[1(S)-(cyclohexylmethyl)-2(R),3(S)-dihydroxy-5-methylhexyl]-2(R)-(cyclopropylmethyl)-butanediamide]
7.43	CC(C)C[C@H](O)[C@H](O)[C@H](CC1CCCCC1)NC(=O)[C@@H](CC(=O)N(CC(=O)N(C)C)C[C@@H](C)c1ccccc1)CC1CC1 [Compound 20, N^4-[2-(dimethylamino)-2-oxoethyl]-N^4-(2(S)-phenylpropyl]-N^1-(1(S)-(cyclohexylmethyl)-2(R),3(S)-dihydroxy-5-methylhexyl]-2(R)-(cyclopropylmethyl)butanediamide]
8.70	CC(C)C[C@H](O)[C@H](O)[C@H](CC1CCCCC1)NC(=O)[C@@H](CC(=O)N(CC(=O)N(C)C)CC1CC2CCC1C2)Cc1cscn1 (mixture of isomers) [Compound 56, N^4 -{{1(S),2(R),4(S)-and 1(R),2(S),4(R)-{bicyclo[2.2.1]hept-2-yl}methyl}-N^4-[2-(dimethylamino)-2-oxoethyl]-N^1-[1(S)-(cyclohexylmethyl)-2(R),3(S)-dihydroxy-5-methylhexyl]-2(R)-(4-thiazolylmethyl)butanediamide]
6.82	CC(C)C[C@H](O)[C@H](O)[C@H](CC1CCCCC1)NC(=O)[C@@H](CC(=O)N(CC(=O)N(C)C)CC(C)(C)c1ccccc1)CC1CC1 [Compound 21, N^4-[2-(dimethylamino)-2-oxoethyl]-N^4-(2-methyl-2-phenylpropyl)-N^1-[1(S)-(cyclohexylmethyl)-2(R),3(S)-dihydroxy-5-methylhexyl]-2(R)-(cyclopropylmethyl)butanediamide]
9.46	CC(C)C[C@H](O)[C@H](O)[C@H](CC1CCCCC1)NC(=O)[C@@H](CC(=O)N(CC(=O)N(C)CCN(C)C(=O)N1CCOCC1)CC1CCCCC1)Cc1csc(N)n1 [Compound 83, N^4-(cyclohexylmethyl)-N^4 -{2-{methyl{2-[methyl(morpholinocarbonyl)-amino]ethyl}amino}-2-oxoethyl}-N^1-[1(S)-(cyclohexylmethyl)-2(R),3(S)-dihydroxy-5-methylhexyl]-2(R)-[(2-amino-4-thiazolyl)methyl]butanediamide]
8.30	CC(C)C[C@H](O)[C@H](O)[C@H](CC1CCCCC1)NC(=O)[C@@H](CC(=O)N(CCc1ccccc1)CC(=O)N(C)C)Cc1csc(N)n1 [Compound 60, N^4-[2-(dimethylamino)-2-oxoethyl]-N^4-(2-phenylethyl)-N^1-[1(S)-(cyclohexylmethyl)-2(R),3(S)-dihydroxy-5-methylhexyl]-2(R)-[(2-amino-4-thiazolyl)methyl]butanediamide]
8.10	CC(C)C[C@H](O)[C@H](O)[C@H](CC1CCCCC1)NC(=O)[C@@H](CC(=O)N(CC(=O)N1CCOCC1)CC1CCCCC1)CC1CC1 [Compound 35, N^4-(cyclohexylmethyl)-N^4-(2-morpholino-2-oxoethyl)-N^1-[1(S)-(cyclohexylmethyl)-2(R),3(S)-dihydroxy-5-methylhexyl]-2(R)-(cyclopropylmethyl)butanediamide]
9.00	CC(C)C[C@H](O)[C@H](O)[C@H](CC1CCCCC1)NC(=O)[C@@H](CC(=O)N(CC(=O)N(C)CCc1ccccn1)[C@@H](C)C1CCCCC1)Cc1csc(N)n1 [Compound 63, N^4-[1(S)-cyclohexylethyl]-N^4 -{2-{methyl[2-(2-pyridinyl)ethyl]-amino}-2-oxoethyl}-N^1-[1(S)-(cyclohexylmethyl)-2(R),3(S)-dihydroxy-5-methylhexyl]-2(R)-[(2-amino-4-thiazolyl)methyl]butanediamide]
7.70	CC(C)C[C@H](O)[C@H](O)[C@H](CC1CCCCC1)NC(=O)[C@@H](CC(=O)N(CC(=O)N(C)CCc1ccccn1)[C@@H](C)c1ccccc1)CC1CC1 [Compound 22, N^4-[1(S)-phenylethyl]-N^4 -{2-{methyl[2-(2-pyridinyl)ethyl]-amino}-2-oxoethyl}-N^1-(1(S)-(cyclohexylmethyl)-2(R),3(S)-dihydroxy-5-methylhexyl]-2(R)-(cyclopropylmethyl)-butanediamide]
8.40	CC(C)C[C@H](O)[C@H](O)[C@H](CC1CCCCC1)NC(=O)[C@@H](CC(=O)N(CC(=O)N1CCOCC1)CC1CCCCC1)Cc1ccccn1 [Compound 67, N^4-(cyclohexylmethyl)-N^4-(2-morpholino-2-oxoethyl)-N^1-[1(S)-(cyclohexylmethyl)-2(R),3(S)-dihydroxy-5-methylhexyl]-2(R)-(2-pyridinylmethyl)butanediamide]
8.60	CC(C)C[C@H](O)[C@H](O)[C@H](CC1CCCCC1)NC(=O)[C@@H](CC(=O)N(CC(=O)N(C)C)[C@@H](C)c1ccccc1)Cc1cscn1 [Compound 30, N^4-[2-(dimethylamino)-2-oxoethyl]-N^4-[1(S)-phenylethyl]-N^1-[1(S)-(cyclohexylmethyl)-2(R),3(S)-dihydroxy-5-methylhexyl]-2(R)-(4-thiazolylmethyl)butanediamide]
7.35	CN(CCc1ccccn1)C(=O)CN(CC1CCCCC1)C(=O)C[C@@H](Cc1csc(N)n1)C(=O)N[C@@H](CC1CCCCC1)[C@@H](O)CSc1nnnn1C [Compound 65, N^4-(cyclohexylmethyl)-N^4 -{2-{methyl-[2-(2-pyridinyl)ethyl]amino}-2-oxoethyl}-N^1 -{1(S)-(cyclohexylmethyl)-2(R)-hydroxy-3-[(l-methyl-1H-tetrazol-5-yl)thio]propyl}-2(R)-[(2-amino-4-thiazolyl)methyl]-butanediamide]
